In the OPERA property sets (Mansouri et al. 2018):

Details: for log10 BCF / log10 biotransformation half-life (days): fish

## CC(Cl)CCl (centres undefined)
  boiling point: 95.5 °C
  log10 Henry constant (atm·m³/mol): -2.55
  log10 Koa: 2.96
  log10 Koc (L/kg): 1.67
  log10 vapour pressure (mmHg): 1.73
  melting point: -100 °C
  ready biodegradability: not readily biodegradable
  log10 BCF: 0.85
  log10 biotransformation half-life (days): -1.06

## O=C(O)c1c(Cl)ccc(Cl)c1Cl
  log10 vapour pressure (mmHg): -3.26
  melting point: 124 °C
  ready biodegradability: not readily biodegradable
  log10 BCF: 0.54

## CC(C)=C1C=C2CCC3C(C)(C(=O)O)CCCC3(C)C2CC1 (centres undefined)
  log10 BCF: 2.17

## Cc1ccc(S(=O)c2ccc(C)cc2)cc1
  melting point: 95 °C

## CCCCCCCCCCCCCCCCCC(=O)CCCCCCCCCCCCCCCCC
  melting point: 89 °C

## CCOC(=O)c1ccc(NC(=O)CCl)cc1
  ready biodegradability: readily biodegradable

## OC(CCl)CCl
  boiling point: 176 °C
  log10 vapour pressure (mmHg): -0.125
  melting point: -4 °C
  ready biodegradability: readily biodegradable

## CCC1(C)CCCCC1
  boiling point: 152 °C

## Cc1ccc(C)s1
  boiling point: 136 °C
  log10 vapour pressure (mmHg): 0.994
  melting point: -62.6 °C

## CCCCCCCCCCCCC/C=C/[C@@H](O)[C@@H](N)CO
  melting point: 67 °C

## CS(C)(=O)=O
  boiling point: 238 °C
  melting point: 109 °C

## COP(=O)(OC)OC
  boiling point: 197 °C
  log10 Henry constant (atm·m³/mol): -8.14
  log10 vapour pressure (mmHg): -0.0706
  melting point: -46 °C
  ready biodegradability: not readily biodegradable
  log10 BCF: 0.15

## CC(Cl)=CCCl
  boiling point: 131 °C

## CC(C)(OO)c1ccccc1
  log10 vapour pressure (mmHg): -2.49
  melting point: -9 °C
  ready biodegradability: not readily biodegradable

## C[Si]1(C)O[Si](C)(C)O[Si](C)(C)O[Si](C)(C)O[Si](C)(C)O[Si](C)(C)O[Si](C)(C)O1
  log10 vapour pressure (mmHg): -1.95
  melting point: -26 °C
  log10 biotransformation half-life (days): 1.48

## Cn1cccn1
  boiling point: 127 °C

## Cc1ccccc1C(=O)Nc1cccc(OC(C)C)c1
  log10 vapour pressure (mmHg): -6.38
  melting point: 92.5 °C

## CC(C)C(Nc1ccc(C(F)(F)F)cc1Cl)C(=O)OC(C#N)c1cccc(Oc2ccccc2)c1 (centres undefined)
  log10 Koc (L/kg): 5.71

## CCOC=Nc1ccccc1
  boiling point: 214 °C

## CON
  boiling point: 49.5 °C
  log10 vapour pressure (mmHg): 2.46

## CCC(C)(C)c1ccc(O)c(C(C)(C)CC)c1
  melting point: 25 °C
  ready biodegradability: not readily biodegradable

## COc1ccc(C[C@H]2NC[C@H](O)[C@H]2OC(C)=O)cc1
  melting point: 140 °C

## Nc1ccc(N)c2c1C(=O)c1c(N)ccc(N)c1C2=O
  melting point: 285 °C

## CCCCCCc1ccc(N)cc1
  boiling point: 282 °C

## Clc1ccc(Oc2ccccc2)cc1
  boiling point: 284 °C
  log10 vapour pressure (mmHg): -2.57

## FC(F)(I)C(F)(F)C(F)(F)C(F)(F)I
  boiling point: 150 °C
  melting point: -9 °C

## CCCc1ccncc1
  boiling point: 185 °C

## O=C1c2ccccc2C(=O)c2c(O)ccc(O)c21
  log10 vapour pressure (mmHg): -7.61
  melting point: 200 °C

## COC(=O)CBr
  boiling point: 132 °C

## CCCCCCOC(C)=O
  boiling point: 172 °C
  log10 Henry constant (atm·m³/mol): -3.28
  log10 Koa: 4.58
  log10 vapour pressure (mmHg): 0.122
  melting point: -80.9 °C

## CCNc1ccccc1
  boiling point: 203 °C
  log10 Henry constant (atm·m³/mol): -5.01
  log10 vapour pressure (mmHg): -0.69
  melting point: -63.5 °C
  ready biodegradability: not readily biodegradable
  log10 BCF: 1.11
  log10 biotransformation half-life (days): -0.65

## c1cnccn1
  boiling point: 115 °C
  log10 vapour pressure (mmHg): 1.03
  melting point: 55 °C
  ready biodegradability: readily biodegradable

## CC(=O)[C@H]1CC[C@H]2[C@@H]3CC[C@H]4C[C@H](O)CC[C@]4(C)[C@H]3CC[C@]12C
  melting point: 174 °C

## c1ccc(OP(Oc2ccccc2)Oc2ccccc2)cc1
  boiling point: 360 °C
  melting point: 25 °C

## CC[C@H](O)C(C)C
  boiling point: 126 °C

## CCCCCCCOC(=O)CCCCC
  boiling point: 261 °C
  melting point: -34.4 °C

## O=C(O)c1ccc(CBr)cc1
  melting point: 230 °C

## CCC(C)(C)c1ccc(O)cc1
  boiling point: 262 °C
  log10 vapour pressure (mmHg): -2.7
  melting point: 95 °C

## Brc1cc2ccccc2c2ccccc12
  melting point: 64.5 °C

## O=C1c2ccccc2C(=O)c2c(Cl)cccc21
  melting point: 163 °C
  ready biodegradability: not readily biodegradable
  log10 BCF: 2.3
  log10 biotransformation half-life (days): -0.23

## NC(=O)c1ccccc1Br
  melting point: 160 °C

## Cl.N=C(N)SCc1ccccc1
  melting point: 173 °C

## CC(C)(O)Cc1ccccc1
  boiling point: 215 °C
  melting point: 24 °C

## CCN=C=S
  boiling point: 132 °C
  log10 vapour pressure (mmHg): 1.06
  melting point: -5.9 °C

## Oc1ccc(Nc2ccc(O)cc2)cc1
  melting point: 174 °C

## Brc1ccc2[nH]ccc2c1
  melting point: 91 °C

## O=Cc1c[nH]c2ccccc12
  melting point: 196 °C

## Cn1c(=O)c2c(ncn2CN2CCOCC2)n(C)c1=O
  melting point: 177 °C

## COP(=O)(OC)OC(=CCl)c1cc(Cl)c(Cl)cc1Cl
  log10 Koc (L/kg): 3.01
  log10 vapour pressure (mmHg): -7.38
  melting point: 96.3 °C
  ready biodegradability: not readily biodegradable
  log10 BCF: 1.61
  log10 biotransformation half-life (days): -1.02

## BrC(Br)C(Br)Br
  boiling point: 244 °C
  log10 vapour pressure (mmHg): -1.7
  melting point: 0 °C
  ready biodegradability: not readily biodegradable
  log10 BCF: 0.74

## CC(C)COC(=O)CC(C)C
  boiling point: 168 °C
  log10 vapour pressure (mmHg): 0.266

## O=C1c2ccccc2C(=O)C1c1ccc(Cl)cc1
  melting point: 146 °C

## CC(/C=C/C=C(C)/C=C/[C@@]1(O)C(C)(C)CCC[C@@]1(C)O)=C\C=C\C=C(C)\C=C\C(=O)O
  melting point: 213 °C

## Cc1ccc2c(c1)CCCC2(C)C
  boiling point: 240 °C
  log10 biotransformation half-life (days): 0.83

## CC(=O)Oc1cc(C)ccc1C
  boiling point: 237 °C

## C#CC1(O)CCCC1
  boiling point: 158 °C
  melting point: 27 °C

## O=C(C(=O)c1ccco1)c1ccco1
  melting point: 164 °C

## N#Cc1ccc(N)cc1
  melting point: 84 °C

## CCCCOC(=O)c1ccccc1C(=O)OC1CCCCC1
  log10 vapour pressure (mmHg): -5.32

## CC#CCO
  boiling point: 148 °C
  melting point: -2.2 °C

## FC(=C(F)C(F)(F)F)C(F)(F)F
  boiling point: 1.5 °C
  log10 vapour pressure (mmHg): 3.3
  melting point: -129 °C

## N#Cc1ccccc1C(F)(F)F
  boiling point: 205 °C
  melting point: 18 °C

## CC(=O)OCCN(CCC#N)c1ccc(N=Nc2nc3ccc([N+](=O)[O-])cc3s2)cc1
  melting point: 167 °C

## CCCOc1ccc([N+](=O)[O-])cc1N
  melting point: 49 °C

## COc1cc(Cl)cc(OC)c1
  boiling point: 234 °C
  melting point: 35 °C

## CCOP(=O)(NC(C)C)Oc1ccc(SC)c(C)c1 (centres undefined)
  log10 Koc (L/kg): 2.51
  log10 vapour pressure (mmHg): -6
  melting point: 49 °C

## COC(=O)c1cc(Oc2ccc(Cl)cc2Cl)ccc1[N+](=O)[O-]
  log10 Koc (L/kg): 4
  log10 vapour pressure (mmHg): -7
  melting point: 85 °C

## C#CC(C)(O)CC (centres undefined)
  boiling point: 120 °C
  log10 vapour pressure (mmHg): 0.72
  melting point: 30.5 °C
  ready biodegradability: readily biodegradable

## O=C1c2ccccc2C(=O)c2cc(O)ccc21
  log10 vapour pressure (mmHg): -10.2
  melting point: 306 °C

## CC(O)C(=O)O (centres undefined)
  log10 vapour pressure (mmHg): -1.09
  melting point: 40.9 °C
  ready biodegradability: readily biodegradable

## CCCC=CC=O
  log10 Henry constant (atm·m³/mol): -4.31

## CCC(CC)C(=O)Cl
  boiling point: 140 °C

## C[Si](Cn1cncn1)(c1ccc(F)cc1)c1ccc(F)cc1
  log10 Koc (L/kg): 3.22
  melting point: 54 °C

## CCCC(=NOCC)C1=C(O)CC(CC(C)SCC)CC1=O (centres undefined)
  log10 Koc (L/kg): 2
  log10 vapour pressure (mmHg): -6.8

## C1CCCCC1
  boiling point: 80.7 °C
  log10 Henry constant (atm·m³/mol): -0.824
  log10 Koa: 2.74
  log10 biodegradation half-life (days): 1.7
  log10 vapour pressure (mmHg): 1.99
  melting point: 6.6 °C
  ready biodegradability: not readily biodegradable
  log10 BCF: 1.92
  log10 biotransformation half-life (days): -0.66

## O=C1c2cccc(O)c2C(=O)c2c(O)cc(CO)cc21
  melting point: 224 °C

## CCCOc1cc(N)ccc1C(=O)OCCN(CC)CC.Cl
  melting point: 149 °C

## CCC(C)Oc1ccccc1 (centres undefined)
  boiling point: 194 °C

## O=C(Cl)c1ccccc1Br
  boiling point: 243 °C
  melting point: 11 °C

## CCCCCCCC(=O)NO
  melting point: 78.8 °C

## Cc1ccccc1OP(=O)(Oc1ccccc1C)Oc1ccccc1C
  ready biodegradability: readily biodegradable
  log10 biotransformation half-life (days): 0.5

## COc1ccc(C)cc1OC
  boiling point: 220 °C
  melting point: 24 °C

## FC(F)=C(F)I
  boiling point: 30 °C

## CCc1cc(Cc2cc(CC)cc(C(C)(C)C)c2O)c(O)c(C(C)(C)C)c1
  melting point: 120 °C
